For orientation: Ki means the equilibrium dissociation constant of an inhibitor or competing ligand from its target.

Chain of Beta-lactamase (P00811 whole entry): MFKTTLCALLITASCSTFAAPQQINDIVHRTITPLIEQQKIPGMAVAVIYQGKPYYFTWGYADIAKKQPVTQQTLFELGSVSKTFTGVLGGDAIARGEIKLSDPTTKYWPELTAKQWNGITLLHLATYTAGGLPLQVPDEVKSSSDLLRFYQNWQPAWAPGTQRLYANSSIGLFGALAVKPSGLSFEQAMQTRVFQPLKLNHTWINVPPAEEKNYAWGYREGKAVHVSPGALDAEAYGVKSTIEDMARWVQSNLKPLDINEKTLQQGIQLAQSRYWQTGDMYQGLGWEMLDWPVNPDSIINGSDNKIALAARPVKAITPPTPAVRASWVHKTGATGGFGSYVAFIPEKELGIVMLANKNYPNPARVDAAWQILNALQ

The test concerns the target Beta-lactamase (Escherichia coli (strain K12), UniProt P00811). Kind of test: Enzyme Inhibition Assay. Conditions: pH 7. An excerpt:
Enzyme inhibition assay using AmpC or TEM-1 from escherichia coli.
As to `O=C(COc1ccccc1)NCB(O)O` [Acylglycineboronic acid, 7], the affinity, expressed as Ki, was 0.7 µM.
In the case of `O=C(Cc1cccs1)NCB(O)O` [N-2-THIOPHEN-2-YL-ACETAMIDE BORONIC ACID], the Ki is 0.32 µM.
The compound `CC(=O)NCB(O)O` [Acylglycineboronic acid, 5] registered an inhibitory constant (Ki) of 18.5 µM. Compared with the last compound, the Ki is about 58-fold higher.
Consider `CB(O)O` [Methylboronic Acid], for which the Ki was 1000 µM.
The value for `O=C(CSc1ccncc1)NCB(O)O` [Acylglycineboronic acid, 13] was 0.175 µM; that for `CC(Oc1ccccc1)C(=O)NCB(O)O` (stereo unspecified) [Acylglycineboronic acid, 8] was 0.3 µM.
On to `CCOc1ccc2ccccc2c1C(=O)NCB(O)O` [Acylglycineboronic acid, 10], for which the Ki stood at 0.033 µM. Against the preceding compound, the Ki is about 9.1-fold lower.
On to `O=C(Cc1ccccc1)NCB(O)O` [Acylglycineboronic acid, 6], for which the affinity corresponds to a Ki of 0.57 µM. Compared with the last compound, the Ki is about 17-fold higher.
In turn, `OB(O)O` [Boric acid] came in with a Ki of 2800 µM.
`O=CNCB(O)O` [Acylglycineboronic acid, 3] yielded an inhibition constant Ki of 4.8 µM.
With `O=C(CCl)NCB(O)O` [Acylglycineboronic acid, 12], affinity was put at a Ki of 0.24 µM.

Source of the values: BindingDB's records for doi:10.1016/S1074-5521(00)00052-1 (Northwestern University, 2001).
